Reference: paper PMC6138237, “Machine intelligence decrypts β-lapachone as an allosteric 5-lipoxygenase inhibitor” (Chemical Science, 2018)
Where two headings read alike, the source gives them in different places.

How the values were obtained:
5-LO = biological target: T1, 5-LO (Homo sapiens, UniProt P09917); assay: 5-LO inhibition assay, Cerep (Method A, indirect fluorogenic readout, Rhodamine 123); assay type: biochemical; conditions: 5-LO
T1 sequence (P09917 1-674): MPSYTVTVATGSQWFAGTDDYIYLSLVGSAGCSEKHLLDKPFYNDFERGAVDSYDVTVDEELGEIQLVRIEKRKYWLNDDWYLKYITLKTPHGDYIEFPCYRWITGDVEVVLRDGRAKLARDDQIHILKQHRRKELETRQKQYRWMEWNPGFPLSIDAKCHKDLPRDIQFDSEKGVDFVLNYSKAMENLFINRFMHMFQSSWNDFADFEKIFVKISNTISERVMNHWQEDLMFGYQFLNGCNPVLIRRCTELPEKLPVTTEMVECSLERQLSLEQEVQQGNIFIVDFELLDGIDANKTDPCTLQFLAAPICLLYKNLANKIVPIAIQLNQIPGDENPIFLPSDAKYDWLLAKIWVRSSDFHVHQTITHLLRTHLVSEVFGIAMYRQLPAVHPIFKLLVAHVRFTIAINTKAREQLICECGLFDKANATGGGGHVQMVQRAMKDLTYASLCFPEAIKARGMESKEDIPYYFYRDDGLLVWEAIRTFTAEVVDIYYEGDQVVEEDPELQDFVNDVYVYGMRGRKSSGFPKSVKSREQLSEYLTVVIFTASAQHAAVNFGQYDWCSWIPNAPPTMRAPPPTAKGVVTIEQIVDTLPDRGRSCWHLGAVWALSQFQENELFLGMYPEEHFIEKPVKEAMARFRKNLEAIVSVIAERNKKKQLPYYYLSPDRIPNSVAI

SIK = SIK (Homo sapiens, UniProt P57059); assay: ExpresS Diversity Kinase Profile, Cerep (LANCE): SIK; assay type: biochemical; conditions: control
Sequence of SIK (P57059 whole entry): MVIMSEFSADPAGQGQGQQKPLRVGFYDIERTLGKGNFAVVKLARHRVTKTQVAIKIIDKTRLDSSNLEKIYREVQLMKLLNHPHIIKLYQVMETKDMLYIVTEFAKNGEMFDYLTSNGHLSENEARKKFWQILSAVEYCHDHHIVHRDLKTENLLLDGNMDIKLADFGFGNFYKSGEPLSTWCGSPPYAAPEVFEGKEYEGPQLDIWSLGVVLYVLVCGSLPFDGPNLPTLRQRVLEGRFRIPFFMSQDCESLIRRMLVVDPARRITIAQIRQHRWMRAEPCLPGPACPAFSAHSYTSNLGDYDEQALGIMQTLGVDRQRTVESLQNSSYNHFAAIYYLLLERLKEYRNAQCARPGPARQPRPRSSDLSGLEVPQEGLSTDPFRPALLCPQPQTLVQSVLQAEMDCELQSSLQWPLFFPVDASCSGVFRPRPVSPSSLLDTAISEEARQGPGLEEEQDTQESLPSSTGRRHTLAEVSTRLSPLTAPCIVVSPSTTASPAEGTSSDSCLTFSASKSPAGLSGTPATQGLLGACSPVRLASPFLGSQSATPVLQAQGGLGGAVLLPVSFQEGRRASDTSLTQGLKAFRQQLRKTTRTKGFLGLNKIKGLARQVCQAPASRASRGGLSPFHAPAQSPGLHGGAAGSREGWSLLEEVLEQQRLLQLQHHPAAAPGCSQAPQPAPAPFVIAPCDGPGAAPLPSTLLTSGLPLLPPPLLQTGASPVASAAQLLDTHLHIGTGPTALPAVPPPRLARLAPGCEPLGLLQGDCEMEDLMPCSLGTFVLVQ

p38α = p38α (Homo sapiens, UniProt Q16539); assay: ExpresS Diversity Kinase Profile, Cerep (LANCE): p38α; assay type: biochemical; conditions: control
Sequence of p38α (Q16539 whole entry): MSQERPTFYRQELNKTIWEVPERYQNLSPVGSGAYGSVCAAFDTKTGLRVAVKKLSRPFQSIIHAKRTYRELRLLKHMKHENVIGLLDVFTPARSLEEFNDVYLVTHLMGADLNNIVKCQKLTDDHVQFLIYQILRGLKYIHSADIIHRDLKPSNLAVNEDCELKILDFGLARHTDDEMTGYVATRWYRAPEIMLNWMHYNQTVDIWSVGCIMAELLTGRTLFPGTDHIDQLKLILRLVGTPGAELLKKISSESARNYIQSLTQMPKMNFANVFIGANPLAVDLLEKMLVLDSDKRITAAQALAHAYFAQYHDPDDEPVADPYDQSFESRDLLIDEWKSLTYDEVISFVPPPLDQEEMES

15-LO-2 = biological target: T2, 15-LO-2 (Homo sapiens, UniProt O15296); assay: 15-LO-2 inhibition assay, Cerep (Method A, fluorometry); assay type: biochemical; conditions: control
T2 sequence (O15296 1-676): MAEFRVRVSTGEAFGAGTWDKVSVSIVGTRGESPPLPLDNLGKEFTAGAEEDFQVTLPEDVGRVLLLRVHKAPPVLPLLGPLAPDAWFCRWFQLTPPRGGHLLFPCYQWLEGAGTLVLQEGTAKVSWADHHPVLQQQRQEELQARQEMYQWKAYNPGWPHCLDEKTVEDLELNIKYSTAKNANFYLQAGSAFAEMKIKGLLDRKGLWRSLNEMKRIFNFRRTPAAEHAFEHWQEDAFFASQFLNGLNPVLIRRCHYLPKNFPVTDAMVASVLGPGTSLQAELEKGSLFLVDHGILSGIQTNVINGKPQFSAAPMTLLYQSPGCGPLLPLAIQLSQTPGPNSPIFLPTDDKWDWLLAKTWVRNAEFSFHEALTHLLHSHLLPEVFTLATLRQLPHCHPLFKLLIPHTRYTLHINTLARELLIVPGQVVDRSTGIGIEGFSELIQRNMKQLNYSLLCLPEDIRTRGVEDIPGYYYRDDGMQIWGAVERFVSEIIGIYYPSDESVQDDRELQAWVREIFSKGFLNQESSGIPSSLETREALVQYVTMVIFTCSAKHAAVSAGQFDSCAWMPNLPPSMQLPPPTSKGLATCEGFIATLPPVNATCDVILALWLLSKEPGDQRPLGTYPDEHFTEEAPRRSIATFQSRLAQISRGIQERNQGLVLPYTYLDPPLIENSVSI

TRPV1 = TRPV1 (Homo sapiens, UniProt Q8NER1); assay: TRPV1 functional agonist assay, Cerep (intracellular Ca2+); assay type: cell-based
Sequence of TRPV1 (Q8NER1 whole entry): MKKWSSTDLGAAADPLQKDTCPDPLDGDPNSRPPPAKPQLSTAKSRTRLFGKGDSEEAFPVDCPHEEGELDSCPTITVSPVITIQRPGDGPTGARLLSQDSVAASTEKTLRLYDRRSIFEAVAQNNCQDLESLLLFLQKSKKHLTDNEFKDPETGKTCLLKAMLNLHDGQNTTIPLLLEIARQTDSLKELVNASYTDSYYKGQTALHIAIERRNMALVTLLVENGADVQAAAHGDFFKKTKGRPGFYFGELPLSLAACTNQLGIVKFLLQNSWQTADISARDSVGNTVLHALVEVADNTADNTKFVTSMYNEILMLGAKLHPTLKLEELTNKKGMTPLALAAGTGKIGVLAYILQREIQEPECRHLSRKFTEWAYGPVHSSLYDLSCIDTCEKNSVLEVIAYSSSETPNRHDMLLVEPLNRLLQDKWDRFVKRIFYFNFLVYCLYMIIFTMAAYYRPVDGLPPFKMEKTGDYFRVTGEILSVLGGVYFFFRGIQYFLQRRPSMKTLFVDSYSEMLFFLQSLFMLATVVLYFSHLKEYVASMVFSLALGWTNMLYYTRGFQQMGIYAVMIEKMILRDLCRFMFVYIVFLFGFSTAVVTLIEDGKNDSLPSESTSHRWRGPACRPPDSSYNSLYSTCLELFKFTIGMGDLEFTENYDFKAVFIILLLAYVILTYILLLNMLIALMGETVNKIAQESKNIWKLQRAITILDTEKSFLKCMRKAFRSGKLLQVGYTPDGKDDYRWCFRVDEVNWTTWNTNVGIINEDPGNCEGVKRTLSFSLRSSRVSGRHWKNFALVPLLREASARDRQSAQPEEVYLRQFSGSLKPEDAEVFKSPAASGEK

TRPM8 = biological target: T3, TRPM8 (Homo sapiens, UniProt Q7Z2W7); assay: TRPM8 functional agonist assay, Cerep (intracellular Ca2+); assay type: cell-based
T3 construct: Cerep, SA (fee-for-service assay) printed G018533 (citation number 33 glued on)
T3 sequence (Q7Z2W7 whole entry): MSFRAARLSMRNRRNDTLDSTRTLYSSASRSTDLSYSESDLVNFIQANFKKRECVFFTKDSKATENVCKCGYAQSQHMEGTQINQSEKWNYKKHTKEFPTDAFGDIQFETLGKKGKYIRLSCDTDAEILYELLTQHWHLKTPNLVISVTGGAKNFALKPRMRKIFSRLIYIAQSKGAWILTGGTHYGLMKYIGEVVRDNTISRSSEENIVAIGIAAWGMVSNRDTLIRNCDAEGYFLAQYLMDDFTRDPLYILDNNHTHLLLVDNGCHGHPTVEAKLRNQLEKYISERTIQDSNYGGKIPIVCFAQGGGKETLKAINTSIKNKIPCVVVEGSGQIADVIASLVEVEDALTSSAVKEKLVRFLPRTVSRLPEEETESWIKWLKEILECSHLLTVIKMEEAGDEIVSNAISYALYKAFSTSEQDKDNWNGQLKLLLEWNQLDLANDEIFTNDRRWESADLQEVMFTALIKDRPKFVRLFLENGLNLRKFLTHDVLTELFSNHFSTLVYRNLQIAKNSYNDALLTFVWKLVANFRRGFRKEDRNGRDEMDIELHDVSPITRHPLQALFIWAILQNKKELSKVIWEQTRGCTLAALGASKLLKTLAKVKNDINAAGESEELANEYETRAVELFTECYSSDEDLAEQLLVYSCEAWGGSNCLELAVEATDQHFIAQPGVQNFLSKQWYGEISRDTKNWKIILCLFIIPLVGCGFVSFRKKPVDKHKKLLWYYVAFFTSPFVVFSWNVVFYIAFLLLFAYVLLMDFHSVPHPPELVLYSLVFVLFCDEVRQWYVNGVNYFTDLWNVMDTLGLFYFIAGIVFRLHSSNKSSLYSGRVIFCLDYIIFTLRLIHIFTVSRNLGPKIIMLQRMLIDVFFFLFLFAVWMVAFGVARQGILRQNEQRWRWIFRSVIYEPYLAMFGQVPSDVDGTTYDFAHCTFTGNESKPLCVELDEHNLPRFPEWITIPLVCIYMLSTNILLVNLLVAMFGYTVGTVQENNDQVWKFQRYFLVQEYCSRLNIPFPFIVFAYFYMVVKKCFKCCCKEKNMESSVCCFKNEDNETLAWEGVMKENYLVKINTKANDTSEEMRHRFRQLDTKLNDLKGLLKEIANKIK

EP4 = EP4 (Homo sapiens, UniProt P35408); assay: EP4 functional agonist assay, Cerep (cAMP, HTRF)
Sequence of EP4 (P35408 whole entry): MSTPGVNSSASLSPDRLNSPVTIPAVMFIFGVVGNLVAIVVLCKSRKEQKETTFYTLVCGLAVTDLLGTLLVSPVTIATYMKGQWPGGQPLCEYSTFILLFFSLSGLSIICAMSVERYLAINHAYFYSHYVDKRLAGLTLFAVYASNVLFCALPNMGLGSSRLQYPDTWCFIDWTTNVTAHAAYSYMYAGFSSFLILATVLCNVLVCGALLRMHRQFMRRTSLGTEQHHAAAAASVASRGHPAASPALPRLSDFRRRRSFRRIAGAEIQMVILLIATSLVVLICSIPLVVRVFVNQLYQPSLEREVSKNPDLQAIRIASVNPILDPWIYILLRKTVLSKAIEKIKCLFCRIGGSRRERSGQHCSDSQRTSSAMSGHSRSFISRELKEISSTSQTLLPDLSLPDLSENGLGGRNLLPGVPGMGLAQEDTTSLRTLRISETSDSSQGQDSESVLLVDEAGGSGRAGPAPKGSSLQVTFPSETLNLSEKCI

EP1 = biological target: T4, EP1 (Homo sapiens, UniProt P34995); assay: EP1 functional agonist assay, Cerep (intracellular Ca2+)
T4 sequence (P34995 1-402): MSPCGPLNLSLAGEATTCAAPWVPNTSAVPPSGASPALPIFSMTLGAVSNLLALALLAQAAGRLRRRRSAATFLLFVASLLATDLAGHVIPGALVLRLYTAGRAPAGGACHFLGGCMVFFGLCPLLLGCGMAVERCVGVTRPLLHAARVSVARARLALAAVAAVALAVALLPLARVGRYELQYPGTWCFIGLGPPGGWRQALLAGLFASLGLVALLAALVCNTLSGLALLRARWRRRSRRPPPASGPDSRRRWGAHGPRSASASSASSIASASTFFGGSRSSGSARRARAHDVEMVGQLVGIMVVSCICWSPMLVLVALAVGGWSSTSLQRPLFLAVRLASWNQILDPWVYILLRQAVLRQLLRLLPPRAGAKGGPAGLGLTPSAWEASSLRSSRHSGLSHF

[1] = Dynamic light scattering (colloidal aggregation); assay type: physicochemical; conditions: 25 °C
EP3 [2] = biological target: T5, EP3 (Homo sapiens, UniProt P43115); assay: EP3 functional agonist assay, Cerep (impedance)
T5 sequence (P43115 1-390): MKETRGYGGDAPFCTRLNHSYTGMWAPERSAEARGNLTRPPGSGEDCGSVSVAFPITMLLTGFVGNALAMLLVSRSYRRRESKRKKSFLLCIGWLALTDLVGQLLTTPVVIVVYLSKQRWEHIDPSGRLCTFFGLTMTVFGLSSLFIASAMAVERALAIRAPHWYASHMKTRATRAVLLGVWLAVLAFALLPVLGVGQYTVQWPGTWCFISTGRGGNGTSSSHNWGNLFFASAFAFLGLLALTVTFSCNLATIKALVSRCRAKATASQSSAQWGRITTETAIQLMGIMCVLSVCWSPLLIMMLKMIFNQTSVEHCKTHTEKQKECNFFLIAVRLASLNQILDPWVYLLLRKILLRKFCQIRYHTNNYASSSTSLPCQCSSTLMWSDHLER

EP2 = EP2 (Homo sapiens, UniProt P43116); assay: EP2 functional agonist assay, Cerep (cAMP, HTRF)
Sequence of EP2 (P43116 whole entry): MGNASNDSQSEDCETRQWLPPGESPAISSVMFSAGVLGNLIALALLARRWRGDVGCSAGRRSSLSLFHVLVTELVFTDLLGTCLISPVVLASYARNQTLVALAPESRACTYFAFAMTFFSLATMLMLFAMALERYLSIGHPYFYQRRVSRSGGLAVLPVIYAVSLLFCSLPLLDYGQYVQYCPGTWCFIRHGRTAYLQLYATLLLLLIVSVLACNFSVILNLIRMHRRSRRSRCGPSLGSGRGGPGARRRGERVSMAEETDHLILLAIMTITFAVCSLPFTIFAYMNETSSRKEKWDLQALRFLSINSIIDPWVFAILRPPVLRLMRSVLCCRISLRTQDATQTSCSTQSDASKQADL

PDE5 = PDE5 (Homo sapiens, UniProt O76074); assay: Phosphodiesterase 5 inhibition assay, Cerep (scintillation counting); assay type: biochemical; conditions: PDE5; control
EP3 [3] = biological target: T5, EP3; assay: EP3 functional antagonist assay, Cerep (sulprostone 0.1 nM, impedance); conditions: EP3 concentration–inhibition curve; n = 2
[4] = n = 2, read-out: % inhibition of control values, Mean
[5] = read-out: % inhibition of control values, 1st measure
[6] = read-out: % inhibition of control values, 2nd measure
[7] = read-out: % of control values, 1st measurement
[8] = read-out: % of control values, 2nd measurement
[9] = read-out: % of control values, Mean

CC1(C)OC2=C(C(=O)C(=O)c3ccccc32)C1O (stereo not drawn) [Compound 4]
inhibition at 5 µM (5-LO; [4]): 72.8%
inhibition at 5 µM (5-LO; [5]): 77.4%
inhibition at 5 µM (5-LO; [6]): 68.2%

Cn1cc(C2=C(c3cn(CCCSC(=N)N)c4ccccc34)C(=O)NC2=O)c2ccccc21 [Ro-318220, reference compound]
nHill (SIK): 0.7

CC1(C)OC2=C(C(=O)C(=O)c3ccccc32)C1Nc1ccc(C(=O)/C=C/c2ccccc2)cc1 (stereo not drawn) [Compound 6]
inhibition at 5 µM (5-LO; [4]): 54.8%
inhibition at 5 µM (5-LO; [5]): 51.5%
inhibition at 5 µM (5-LO; [6]): 58.1%

CC1(C)OC2=C(C(=O)C(=O)c3ccccc32)C1Nc1ccc(Cl)cc1 (stereo not drawn) [Compound 3]
inhibition at 5 µM (5-LO; [4]): 31.1%
inhibition at 5 µM (5-LO; [5]): 33.1%
inhibition at 5 µM (5-LO; [6]): 29%

CC(Cc1ccc(O)c(O)c1)C(C)Cc1ccc(O)c(O)c1 (stereo not drawn) [NDGA, reference compound]
nHill (5-LO; control): 1.5

CC(=O)OCC1OC(OCc2cn(CC3C4=C(OC3(C)C)c3ccccc3C(=O)C4=O)nn2)C(OC(C)=O)C(OC(C)=O)C1OC(C)=O (stereo not drawn) [Compound 7]
inhibition at 5 µM (5-LO; [4]): 75.4%
inhibition at 5 µM (5-LO; [5]): 73.8%
inhibition at 5 µM (5-LO; [6]): 76.9%

Oc1ccc(-c2nc(-c3ccncc3)c(-c3ccc(F)cc3)[nH]2)cc1 [SB202190, reference compound]
nHill (p38α): 1.3

CC1(C)OC2=C(C(=O)C(=O)c3ccccc32)C1Nc1ccccc1 (stereo not drawn) [Compound 2]
inhibition at 5 µM (5-LO; [4]): 32.2%
inhibition at 5 µM (5-LO; [5]): 42.2%
inhibition at 5 µM (5-LO; [6]): 22.2%

N#C/C(=C\c1ccc(O)c(O)c1)C(=O)OCCc1cccs1 [Compound 2-TEDC, reference compound]
nHill (15-LO-2): 0.7

CC(C)=CCC1=C(O)C(=O)c2ccccc2C1=O [Lapachol, lapachol, reference compound]
remaining activity at 150 µM (TRPV1; [7]): -13.1%
remaining activity at 150 µM (TRPV1; [8]): -13.1%
remaining activity at 150 µM (TRPV1; [9]): -13.1%
inhibition at 150 µM (5-LO; [4]): 87.1%
inhibition at 150 µM (5-LO; [5]): 84.9%
inhibition at 150 µM (5-LO; [6]): 89.3%
agonist response (% of control) at 150 µM (TRPM8; [7]): -20.4%
agonist response (% of control) at 150 µM (TRPM8; [8]): -20.4%
agonist response (% of control) at 150 µM (TRPM8; [9]): -20.4%
remaining activity at 150 µM (EP4; [7]): 8%
remaining activity at 150 µM (EP4; [8]): 5.8%
remaining activity at 150 µM (EP4; [9]): 6.9%
remaining activity at 150 µM (EP1; [7]): -11.3%
remaining activity at 150 µM (EP1; [8]): -11.3%
remaining activity at 150 µM (EP1; [9]): -11.3%
Count rate (kcps) ([1]; 25 µM in H2O + 0.1% DMSO): 250.6 kcps
Count rate (kcps) ([1]; 50 µM in H2O + 0.1% DMSO): 198.4 kcps
Count rate (kcps) ([1]; 100 µM in H2O + 0.1% DMSO): 882.6 kcps
remaining activity at 150 µM (EP3 [2]; [7]): 22.7%
remaining activity at 150 µM (EP3 [2]; [8]): 21.7%
remaining activity at 150 µM (EP3 [2]; [9]): 22.2%
remaining activity at 150 µM (EP2; [7]): -1.2%
remaining activity at 150 µM (EP2; [8]): -2.4%
remaining activity at 150 µM (EP2; [9]): -1.8%

CC1(C)OC2=C(CC1O)C(=O)C(=O)c1ccccc12 (stereo not drawn) [Compound 5]
inhibition at 5 µM (5-LO; [4]): 41.1%
inhibition at 5 µM (5-LO; [5]): 47.2%
inhibition at 5 µM (5-LO; [6]): 35.5%

CC(=O)OCC1OC(OCc2cn(C3C4=C(OC3(C)C)c3ccccc3C(=O)C4=O)nn2)C(OC(C)=O)C(OC(C)=O)C1OC(C)=O (stereo not drawn) [Compound 8]
inhibition at 5 µM (5-LO; [4]): 66.6%
inhibition at 5 µM (5-LO; [5]): 68.4%
inhibition at 5 µM (5-LO; [6]): 64.8%

OCCN(CCO)c1nc(N2CCCCC2)c2nc(N(CCO)CCO)nc(N3CCCCC3)c2n1 [Dipyridamole, reference compound]
nHill (PDE5): 1.3

COc1ccc(Br)cc1S(=O)(=O)NC(=O)/C=C/c1ccccc1Cc1ccc2ccccc2c1 [Compound L798106, reference compound]
IC50 (EP3 [3]): 370 nM
